Results as given in patent publication US10836743B2, “Fluorinated cyclopropylamine compound, preparation method therefor, pharmaceutical composition thereof, and uses thereof” (SHANGHAI INSTITUTE OF MATERIA MEDICA, CHINESE ACADEMY OF …, priority 2016, dated 2020).
Like-named read-outs stand apart in the source and are kept apart here.

Test system: leukemia cells MV4-11
Assay: Inhibitory activity on growth by MTS method
Assay type: cell-based
Details: Homo sapiens
Method: 2. Test of Inhibitory Activities of Compound on Growth by MTS Method Experimental Principle:
MTS assay detects the inhibitory effect of the tested compound to the growth of leukemia cells MV (4:11). The principle is that succinate dehydrogenase in mitochondria in living cells can reduce exogenous thiazole blue to insoluble blue crystal Formazan.
• 1. MV4-11 cells in logarithmic growth phase were accurately counted at 16000 cells/mL, and the diluted cell solution was added to 96-well plates at 90 μL per well. • 2. Fresh medium was taken and sequentially added to a 96-well plate with cell fluid at 90 μL per well. • 3. […] 2 μL of the diluted compound was respectively added to a 96-well plate containing 98 μL of blank medium, and for DMSO group, 98 μL of blank medium was added into 2 μL of DMSO, and mixed for further use. • 5. The compound mixed with the medium was separately added to a 96-well plate in which cells were plated, in triplicate, 20 μL per well, and were mixed. The blank group was added with 200 μL of IMDM medium, and the DMSO group was added with 180 μL of the cell-containing medium in DMSO diluted with the medium. • 6. […]

[1] = 72 h, MV4-11, 3 days, read-out: MTS 3 D
[2] = 240 h, MV4-11, 10 days, read-out: MTS 10 D

IC50 [1] [µM] | IC50 [2] [µM] | SMILES
> 20 | 1.02 ± 2.44 | FC1(CN[C@@H]2C[C@H]2c2ccccc2)CCN(Cc2ccccc2)CC1 (relative stereo) [Example A6, N-((1-Benzyl-4-fluoropiperidin-4-yl)methyl)-trans-2-phenylcyclopropylamine]
> 20 | 0.27 ± 0.37 | O=C(CCc1ccccc1)N1CCC(F)(CN[C@@H]2C[C@H]2c2ccccc2)CC1 (relative stereo) [Example A8, 1-(4-fluoro-4-(((trans-2-phenylcyclopropyl)amino)methyl)piperidin-1-yl)-3-phenyl-1-propanone]
> 20 | 0.6 ± 1.09 | O=C(CCC1CCCCC1)N1CCC(F)(CN[C@@H]2C[C@H]2c2ccccc2)CC1 (relative stereo) [Example A10, 3-cyclohexyl-1-(4-fluoro-4-(((trans-2-phenylcyclopropyl)amino)methyl)piperidin-1-yl)-1-propanone]
> 20 | 0.96 | FC1(CN[C@@H]2C[C@H]2c2ccccc2)CCN(CCCc2ccccc2)CC1 (relative stereo) [Example A12, N-((4-fluoro-1-(3-phenylpropyl)piperidin-4-yl)methyl)-trans-2-phenylcyclopropylamine]
8.17 ± 0.35 | 13 ± 0.42 | FC1(CN[C@@H]2C[C@H]2c2ccccc2)CCN(CCCC2CCCCC2)CC1 (relative stereo) [Example A14, N-((1-(3-Cyclohexylpropyl)-4-fluoropiperidin-4-yl)methyl)-trans-2-phenylcyclopropylamine]
> 20 | 0.33 ± 0.16 | CN1CCC(F)(CN[C@@H]2C[C@H]2c2ccccc2)CC1 (relative stereo) [Example A15, N-((4-Fluoro-1-methylpiperidin-4-yl)methyl)-trans-2-phenylcyclopropylamine]
> 20 |  | CS(=O)(=O)c1ccc(CN2CCC(F)(CN[C@@H]3C[C@H]3c3ccccc3)CC2)cc1 (relative stereo) [Example A16, N-((4-Fluoro-1-(4-(methylsulfonyl)benzyl)piperidin-4-yl)methyl)-trans-2-phenylcyclopropylamine]
> 20 | 3 ± 5.19 | FC1(CN[C@@H]2C[C@H]2c2ccccc2)CCCCC1 (relative stereo) [Example A18, N-((1-Fluorocyclohexyl)methyl)-trans-2-phenylcyclopropylamine]
> 20 | 0.239 ± 0.004 | CS(=O)(=O)N1CCC(F)(CN[C@@H]2C[C@H]2c2ccccc2)CC1 (relative stereo) [Example A93, N-((4-Fluoro-1-(methylsulfonyl)piperidin-4-yl)methyl)-trans-2-phenylcyclopropylamine]
> 20 | 0.039 ± 0.011 | O=C(OCC1CNC1)N1CCC(F)(CN[C@@H]2C[C@H]2c2ccccc2)CC1 (relative stereo) [Example A94, Azetidin-3-ylmethyl 4-fluoro-4-(((trans-2-phenylcyclopropyl)amino)methyl)piperidine-1-carboxylate]
> 20 | 1.24 ± 0.844 | O=C(OC1CCNCC1)N1CCC(F)(CN[C@@H]2C[C@H]2c2ccccc2)CC1 (relative stereo) [Example A95, Piperidin-4-yl 4-fluoro-4-(((trans-2-phenylcyclopropyl)amino)methyl)piperidine-1-carboxylate]
> 20 | 0.159 ± 0.074 | N#Cc1ccc(CN2CCC(F)(CN[C@@H]3C[C@H]3c3ccccc3)CC2)cc1 (relative stereo) [Example A96, 4-((4-Fluoro-4-(((trans-2-phenylcyclopropyl)amino)methyl)piperidin-1-yl)methyl)benzonitrile]
> 20 | 0.064 ± 0.026 | FC1(CN[C@@H]2C[C@H]2c2ccccc2)CCN(Cc2ccsc2)CC1 (relative stereo) [Example A98, N-((4-Fluoro-1-(thiophen-3-ylmethyl)piperidin-4-yl)methyl)-trans-2-phenylcyclopropylamine]
> 20 | 0.29 ± 0.19 | O=C(O)c1ccc(CN2CCC(F)(CN[C@@H]3C[C@H]3c3ccccc3)CC2)cc1 [(1R,2S)-A5, 4-((4-Fluoro-4-((((1R,2S)-2-phenylcyclopropyl)amino)methyl)piperidin-1-yl)methyl)benzoate]
> 20 | 3.77 ± 1.19 | O=C(O)c1ccc(CN2CCC(F)(CN[C@H]3C[C@@H]3c3ccccc3)CC2)cc1 [(1S,2R)-A5, 4-((4-Fluoro-4-((((1S,2R)-2-phenylcyclopropyl)amino)methyl)piperidin-1-yl)methyl)benzoate]
> 20 | 0.96 ± 0.444 | O=C(OCC1CCNCC1)N1CCC(F)(CN[C@H]2C[C@@H]2c2ccccc2)CC1 [(1S,2R)-A43]

IC50 [1] [µM] | IC50 [2] [µM] | SMILES
> 20 |  | CNC1CCC(F)(CNC2CC2c2ccccc2)CC1 (stereo not drawn) [Example A11, 4-fluoro-N-methyl-4-(((trans-2-phenylcyclopropyl)amino)methyl)cyclohexane-1-amine]
> 20 | 2.57 ± 1.66 | O=C(NC1CCC(F)(CNC2CC2c2ccccc2)CC1)OCc1ccccc1 (stereo not drawn) [Example A19, Benzyl 4-fluoro-4-((trans-2-phenylcyclopropyl)amino)methyl)cyclohexyl)carbamate]
> 20 | 1.7 ± 0.83 | O=C(O)c1ccc(CN2CCC(COC(=O)N3CCC(F)(CNC4CC4c4ccccc4)CC3)CC2)cc1 (centres unmarked) [Example A91]
> 20 | 0.132 ± 0.055 | O=S(=O)(CC1CCNCC1)N1CCC(F)(CNC2CC2c2ccccc2)CC1 (stereo not drawn) [Example A92, N-((4-Fluoro-1-(piperidin-4-ylmethyl)sulfonyl)piperidin-4-yl)methyl)-trans-2-phenylcyclopropylamine]
2.21 ± 0.63 | > 20 | CC(C)(C)OC(=O)c1ccc(CN2CCC(F)(CNC3CC3c3ccc(Br)s3)CC2)cc1 (centres unmarked) [Example A101, Tert-Butyl 4-((4-(((2-(5-bromothien-2-yl))cyclopropyl)amino)methyl)-4-fluoropiperidin-1-yl)methyl)benz Oate]
> 20 | > 20 | O=C(O)c1ccc(CN2CCC(F)(CNC3CC3c3ccc(Br)s3)CC2)cc1 (centres unmarked) [Example A102]
1.95 ± 0.6 | 8.35 ± 0.71 | CC(C)(C)OC(=O)c1ccc(CN2CCC(F)(CNC3CC3c3ccc(-c4ccc(F)cc4)s3)CC2)cc1 (centres unmarked) [Example A105, Tert-butyl 4-((4-fluoro-4-(((2-(5-(4-fluorophenyl)thiophen-2-yl)cyclopropyl)amino)methyl)piperidin-1-yl)methyl)benzoate]
1.71 ± 0.22 | 9.99 ± 1.5 | CC(C)(C)OC(=O)c1ccc(CN2CCC(F)(CNC3CC3c3ccc(-c4ccc(Cl)cc4)s3)CC2)cc1 (centres unmarked) [Example A106]
0.75 ± 0.15 | 13 ± 1.9 | CC(C)(C)OC(=O)c1ccc(CN2CCC(F)(CNC3CC3c3ccc(-c4ccc(C(F)(F)F)cc4)s3)CC2)cc1 (centres unmarked) [Example A107, Tert-butyl 4-((4-fluoro-4-(((2-(5-(4-(trifluoromethyl)phenyl)thiophen-2-yl)cyclopropyl)amino)methyl)piperidin-1-yl)methyl)benzoate]
2.64 ± 0.97 | 11.9 ± 2.04 | CC(C)(C)OC(=O)c1ccc(CN2CCC(F)(CNC3CC3c3ccc(-c4ccccc4)s3)CC2)cc1 (centres unmarked) [Example A108, Tert-butyl 4-((4-fluoro-4-(((2-(5-phenylthiophen-2-yl)cyclopropyl)amino)methyl)piperidin-1-yl)methyl)benzoate]
2.1 ± 0.12 | 4.7 ± 1.68 | CC(C)(C)OC(=O)c1ccc(CN2CCC(F)(CNC3CC3c3ccc(-c4cccc5ccccc45)s3)CC2)cc1 (centres unmarked) [Example A109, tert-Butyl 4-((4-fluoro-4-(((2-(5-(naphthalen-1-yl)thiophen-2-yl)cyclopropyl)amino)methyl)piperidine-1-yl)methyl)benzoate]
2.59 ± 0.14 | 5.93 ± 0.35 | O=C(OCC1CCNCC1)N1CCC(F)(CNC2CC2c2ccc(-c3ccc(C(F)(F)F)cc3)s2)CC1 (centres unmarked) [Example A110, Piperidin-4-ylmethyl 4-fluoro-4-(((2-(5-(4-(trifluoromethyl)phenyl)thiophen-2-yl)cyclopropyl)amino)methyl) piperidine-1-carboxylate]
> 20 | 19.9 ± 0.86 | O=C(OCC1CCNCC1)N1CCC(F)(CNC2CC2c2ccc(Br)s2)CC1 (centres unmarked) [Example A111, Piperidin-4-ylmethyl 4-(((2-(5-bromothien-2-yl)cyclopropyl)amino)methyl)-4-fluoropiperidine-1-carboxylate]
> 20 | > 20 | COc1ccc(-c2ccc(C3CC3NCC3(F)CCN(C(=O)OCC4CCNCC4)CC3)cn2)cc1 (centres unmarked) [Example A112, Piperidin-4-ylmethyl 4-fluoro-4-(((2-(6-(4-methoxyphenyl)pyridin-3-yl)cyclopropyl)amino)methyl)piperidine-1-carboxylate]
> 20 | > 20 | O=C(OCC1CCNCC1)N1CCC(F)(CNC2CC2c2ccc(C3CC3)s2)CC1 (centres unmarked) [Example A113, Piperidin-4-ylmethyl 4-(((2-(5-cyclopropylthien-2-yl)cyclopropyl)amino)methyl)-4-fluoropiperidine-1-carboxylate]

SMILES | IC50 [1] [µM] | IC50 [2] [µM]
O=C(Oc1ccccc1)N1CCC(F)(CNC2CC2c2ccccc2)CC1 (stereo not drawn) [Example A9, Phenyl 4-Fluoro-4-((trans-2-phenylcyclopropyl)amino)methyl)piperidine-1-carboxylate] | > 20 | 1.16 ± 0.15
